Measurements published in patent US8039586B1, “Cerebral organic anion transporter and its gene” (J-Pharma Co., Ltd., priority 1998, dated 2011).
Like-named read-outs stand apart in the source and are kept apart here.

Assays:
rat OAT3 (rk1411) [1] = molecular target: T1, rat OAT3 (rk1411) (Rattus norvegicus, UniProt Q9R1U7); assay: Michaelis-Menten dynamic test of organic anion transport with rk1411 in oocyte; type: cell-based
T1 construct: cRNA (RNA complementary to cDNA) was prepared in vitro from the plasmid carrying the clone (rk1411); expressed in transfected cells; host or cells: Xenopus oocytes injected with rk1411 cRNA
T1 sequence (Q9R1U7 1-536): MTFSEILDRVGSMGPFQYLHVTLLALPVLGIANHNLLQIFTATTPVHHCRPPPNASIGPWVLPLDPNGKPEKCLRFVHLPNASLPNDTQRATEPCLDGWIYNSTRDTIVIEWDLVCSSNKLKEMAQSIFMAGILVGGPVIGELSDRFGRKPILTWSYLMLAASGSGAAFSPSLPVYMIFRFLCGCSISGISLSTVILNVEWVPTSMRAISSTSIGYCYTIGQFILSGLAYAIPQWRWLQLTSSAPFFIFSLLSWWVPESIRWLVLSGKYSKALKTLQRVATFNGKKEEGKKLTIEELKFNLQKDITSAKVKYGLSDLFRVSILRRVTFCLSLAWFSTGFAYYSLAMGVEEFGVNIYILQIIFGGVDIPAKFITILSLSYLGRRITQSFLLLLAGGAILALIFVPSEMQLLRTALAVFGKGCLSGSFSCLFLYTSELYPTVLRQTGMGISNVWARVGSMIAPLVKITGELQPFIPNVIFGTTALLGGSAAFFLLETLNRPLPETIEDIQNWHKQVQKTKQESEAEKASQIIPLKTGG
Description: The organic anion transport with rk1411 was subjected to the Michaelis-Menten dynamic test.

rat OAT3 (rk1411) [2] = molecular target: T1, rat OAT3 (rk1411); assay: Uptake of radiolabeled organic anions and cations by Xenopus oocyte expressing rk1411 (rat OAT3); type: cell-based; conditions: Xenopus oocyte injected with rk1411 cRNA; FIG. 1
Description: According to the method already reported (Sekine, T., et al. J. Biol. Chem., Vol. 272, pp. 18526-9, 1997), the resulting cRNA was injected in the Xenopus oocyte; the oocyte was subjected to an uptake test with various radiolabeled organic anions and organic cations.

hOAT3 [3] = molecular target: T2, hOAT3 (Homo sapiens, UniProt Q8TCC7); assay: Uptake of radiolabeled compounds by Xenopus oocyte injected with hOAT3 cRNA; type: cell-based; conditions: one hour, versus control oocyte
T2 construct: cRNA (RNA complementary to cDNA) was prepared in vitro from the plasmid comprising the hOAT3 recovered above; expressed in transfected cells; host or cells: Xenopus oocytes injected with hOAT3 cRNA
T2 sequence (Q8TCC7 1-542 K271E/D366H): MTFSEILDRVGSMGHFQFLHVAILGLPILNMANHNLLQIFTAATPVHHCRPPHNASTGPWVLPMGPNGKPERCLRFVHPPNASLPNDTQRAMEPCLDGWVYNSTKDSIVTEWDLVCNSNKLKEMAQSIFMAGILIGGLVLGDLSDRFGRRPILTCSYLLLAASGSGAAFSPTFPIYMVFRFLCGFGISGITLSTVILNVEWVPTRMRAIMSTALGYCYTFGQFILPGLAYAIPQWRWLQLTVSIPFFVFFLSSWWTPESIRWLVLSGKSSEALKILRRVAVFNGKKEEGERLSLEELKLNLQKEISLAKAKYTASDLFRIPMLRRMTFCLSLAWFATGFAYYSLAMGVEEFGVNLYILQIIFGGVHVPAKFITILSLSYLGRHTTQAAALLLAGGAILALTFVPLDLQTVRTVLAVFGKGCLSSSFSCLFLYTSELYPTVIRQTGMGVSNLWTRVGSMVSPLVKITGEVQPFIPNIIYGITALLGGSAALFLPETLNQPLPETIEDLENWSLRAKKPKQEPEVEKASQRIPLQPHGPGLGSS
Description: By using T7 RNA polymerase, cRNA (RNA complementary to cDNA) was prepared in vitro from the plasmid comprising the hOAT3 recovered above by the method by Sekine, et al. (see Sekine, T., et al. J. Biol. Chem., Vol. 272, pp. 18526-9, 1997).
According to the already reported method of Sekine, et al. (Sekine, T., et al. J. Biol. Chem., Vol. 272, pp. 18526-9, 1997), the resulting hOAT3 cRNA was injected in the Xenopus oocyte; the oocyte was subjected to an uptake test with various radiolabeled organic anions and organic cations. The control oocyte cell (oocyte cell with no injection of hOAT3 cRNA) and the oocyte cell injected with hOAT3 cRNA were cultured in a buffer containing the following radiolabels for one hour, to assay the uptake of the radiolabels into the oocytes.
In each figure, open column expresses the case of the control oocyte used; and closed column expresses the case of the oocyte injected with hOAT3 cRNA.

hOAT3 [4] = molecular target: T3, hOAT3 (Homo sapiens, UniProt Q8TCC7, D366H/K271E); assay: Inhibition of 3H-estrone sulfate uptake in oocyte injected with hOAT3 cRNA; type: cell-based; parameters: cRNA (RNA complementary to cDNA) was prepared in vitro from the plasmid comprising the hOAT3 recovered above; expressed in transfected cells; host or cells: Xenopus oocytes injected with hOAT3 cRNA; conditions: 50 nM 3H-estrone sulfate; non-radiolabeled compound at 500 μM or the concentration shown in FIG. 19; one hour
T3 sequence (Q8TCC7 1-542 K271E/D366H): T2 sequence (Q8TCC7 1-542 K271E/D366H)

hOAT3 [5] = molecular target: T3, hOAT3; conditions: transport by hOAT3 in Xenopus oocyte
Description: Then, the hOAT3 transport of organic anions was examined at the Michaelis-Menten kinetic test.

[6] = substrate: CN(Cc1cnc2nc(N)nc(N)c2n1)c1ccc(C(=O)N[C@@H](CCC(=O)O)C(=O)O)cc1; assay: cells, lysate or membranes; conditions: other: transport by hOAT3 in Xenopus oocyte
[7] = substrate: Nc1ccc(C(=O)NCC(=O)O)cc1; assay: Michaelis-Menten dynamic test of organic anion transport with rk1411 in oocyte; type: cell-based; conditions: other: transport by rk1411 (rat OAT3) in Xenopus oocyte; FIG. 2
[8] = transport by rk1411 (rat OAT3) in Xenopus oocyte
[9] = transport by rk1411 (rat OAT3) in Xenopus oocyte, FIG. 2, read-out: Km

In the case of `C[C@@H]1Cc2c(Cl)cc(C(=O)N[C@@H](Cc3ccccc3)C(=O)O)c(O)c2C(=O)O1` [ochratoxin A], the Vmax (rat OAT3 (rk1411) [1]; [8]) is reported as 8.08 ± 0.33 pmol/hr/oocyte, the Km (rat OAT3 (rk1411) [1]; transport by rk1411 (rat OAT3) in Xenopus oocyte, FIG. 2, listed as Ochratoxin A, read-out: Km) is reported as 0.739 ± 0.178 µM and the Km (rat OAT3 (rk1411) [1]; [9]) is reported as 0.74 µM. For the same molecule, the “uptake of radiolabeled compound by oocyte in which rk1411 was expressed” value (rat OAT3 (rk1411) [2]) was “could take up” and the “uptake of radiolabeled compound by oocyte with hOAT3 expression” value (“uptake … with hOAT3 expression” for short) (hOAT3 [3]; substrate 100 nM) was “takes up”.

`Nc1ccc(C(=O)NCC(=O)O)cc1` [PAH, p-aminohippuric acid] was tested, and the Km (rat OAT3 (rk1411) [1]) was 64.7 ± 10 µM, the Vmax (rat OAT3 (rk1411) [1]; [8]) was 23.3 ± 2.8 pmol/hr/oocyte and the “inhibition of the transport of 3H-estrone sulfate with hOAT3” value (hOAT3 [4]) was “significantly inhibited”. For the same molecule, the “uptake of radiolabeled compound by oocyte in which rk1411 was expressed” value (rat OAT3 (rk1411) [2]) was “could take up” and the “uptake … with hOAT3 expression” value (hOAT3 [3]; substrate 10 μM) was “takes up”.

With estrone sulfate the Km (rat OAT3 (rk1411) [1]; transport by rk1411 (rat OAT3) in Xenopus oocyte, FIG. 2, listed as Estrone sulfate, read-out: Km) was 2.34 ± 0.2 µM, the Km (rat OAT3 (rk1411) [1]; [9]) was 2.3 µM and the “inhibition of the transport of 3H-estrone sulfate with hOAT3” value (hOAT3 [4]) was “significantly inhibited”. The Km (hOAT3 [5]) was 3.08 µM and the “uptake … with hOAT3 expression” value (hOAT3 [3]; substrate 50 nM) was “takes up”.

B1: hOAT3 (Homo sapiens; D366H/K271E) (protein)
chain: T2 sequence (Q8TCC7 1-542 K271E/D366H)
Work on B1 yielded a Km [6] of 2.22 µM.

B2: rat OAT3 (rk1411) (Rattus norvegicus) (protein)
chain: T1 sequence (Q9R1U7 1-536)
notes: cRNA (RNA complementary to cDNA) was prepared in vitro from the plasmid carrying the clone (rk1411); expressed in transfected cells; host or cells: Xenopus oocytes injected with rk1411 cRNA
Work on B2 yielded a Km [7] of 4.7 µM.
